Data set [1] is described as follows: Cell viability assay HEK293 (CellTiter-Glo). It counts as cell-based. As to conditions: human, HEK293 cells, read-out: HEK293 (CC50 code). How it is done: (§1) Assay Condition: Used culture medium for HEK293-DMEM (PanEco, Cat #C420), for the rest of the cell lines—culture medium RPMI-1640 (PanEco, Cat #C363).
(§2) Assay Procedure: Compounds were prepared as 200× stocks with serial dilution in 100% DMSO with a final concentration of 1×. Dispersed 40 μl in 384-well plates at a concentration of 2000 cells per well for HEK293 and at a concentration of 4000 cells per well for the rest of the cell lines using a robotic station Biomek (Beckman). Before adding compounds, the cells were incubated at 37° C. (HEK293 were incubated for a day before adding compounds).
(§3) A dilution plate was prepared by pouring 78 μl of the appropriate culture medium using a robotic station Biomek (Beckman). Sequentially, using a robotic station, 2 μl of substances were taken and added to 78 μl of culture medium (dilution of compounds 40×). Took from there 10 μl and added to the plates to the cells (dilution of compounds 5×). The plates were incubated for 3 days at a temperature 37° C. After 3 days, 10 μl of CellTiter-Glo (Promega) was added to the cells and the luminescence was measured.
On the technique in general: In ATP-based viability assays light output follows the ATP content of the culture.

Another data set has as its target T1, BCL-2 (Homo sapiens, UniProt P10415).
T1 construct: purchased BPS Bioscience #50222
As to the kind of experiment: BCL-2 TR-FRET Assay (primary PPI inhibition). As to conditions: 60 min incubation; read-out: BCL2 (IC50 code, BCL-2 TR-FRET). It counts as binding.

In a further data set the test system is RS4-11 cells. As to the kind of experiment: Cell viability assay RS4-11 (CellTiter-Glo). In kind it is cell-based. Conditions: Homo sapiens, read-out: RS4-11 (CC50 code). How it is done: as §1, §2, §3
Another data set concerns MOLT-4 cells. As to the kind of experiment: Cell viability assay MOLT-4 (CellTiter-Glo). Conditions: Homo sapiens, read-out: MOLT-4 (CC50 code). It counts as cell-based. How it is done:
as §1, §2, §3

Another data set addresses T2, BCL-XL (Homo sapiens, UniProt Q07817).
T2 construct: purchased BPS Bioscience #50223
Nature of the data set: BCL-XL TR-FRET Assay (primary PPI inhibition). Conditions: 60 min incubation; read-out: BCLxL (IC50 code, BCL-XL TR-FRET). It counts as binding. How it is done: BCL-XL TR-FRET Assay (BPS Bioscience, #50223) Assay Condition: The following assay concentrations and times were used: 10.5 ng BCL-XL, 5 ul of 1:100 anti-His Tb-labeled donor, 5 ul of 1:100 Dye-labeled acceptor, 5 ul of 1:80 BCL-XL Peptide Ligand, and 2 ul of test compound, with 60 min incubation time. The results of the assay were read using a Clariostar (BMG Labtech) plate reader with the following parameters: TR FRET, 340 ex/620 and 665 em; 60 μsec Delay; and 500 μsec integration.
For orientation: TR-FRET usually uses a lanthanide donor and a delayed reading to cut background.

Read-outs that look alike come from different tables or passages of the source. Bounds are passed on as bounds.

T2 sequence (Q07817 whole entry): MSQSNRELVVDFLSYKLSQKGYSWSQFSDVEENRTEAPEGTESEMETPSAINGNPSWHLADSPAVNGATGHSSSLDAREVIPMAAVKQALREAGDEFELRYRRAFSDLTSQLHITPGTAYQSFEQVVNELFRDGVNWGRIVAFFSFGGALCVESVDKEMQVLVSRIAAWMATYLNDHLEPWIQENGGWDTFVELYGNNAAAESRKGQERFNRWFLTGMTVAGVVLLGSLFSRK
T1 sequence (P10415 whole entry): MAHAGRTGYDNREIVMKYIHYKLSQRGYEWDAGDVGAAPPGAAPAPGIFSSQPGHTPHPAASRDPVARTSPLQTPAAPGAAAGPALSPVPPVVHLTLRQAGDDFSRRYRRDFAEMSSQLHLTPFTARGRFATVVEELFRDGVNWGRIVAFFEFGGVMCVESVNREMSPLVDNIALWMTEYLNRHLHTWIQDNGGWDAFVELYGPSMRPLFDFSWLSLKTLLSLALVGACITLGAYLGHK

In general, CC50 refers to the concentration at which the toxic effect on the cells reaches its halfway point. A word on the IC50: it is the concentration needed to halve the response being measured. Take `O=C(NS(=O)(=O)c1ccc(NCC2CCOCC2)c([N+](=O)[O-])c1)c1ccc(N2CCC(CN3C(=O)C4(CCCC4)C3c3ccc(Cl)cc3)CC2)cc1Oc1ccc2[nH]ccc2c1` (stereo not shown) [Compound 10, 4-[4-[[1-(4-chlorophenyl)-3-oxo-2-azaspiro[3.4]octan-2-yl]methyl]-1-piperidyl]-2-(1H-indol-5-yloxy)-N-[3-nitro-4-(tetrahydropyran-4-ylmethylamino)phenyl]sulfonyl-benzamide]: in data set [1], the CC50 at 3 days is no more than 10 µM. The half-maximal inhibitory concentration (IC50) on BCL-2 is greater than 0.05 µM. The cytotoxic concentration (CC50) with RS4-11 cells (RS4-11, 72 h) was greater than 0.2 µM; in the data set on MOLT-4 cells (MOLT-4, 72 h) it was greater than 10 µM.

On to `O=C(NS(=O)(=O)c1ccc(NCC2CCOCC2)c([N+](=O)[O-])c1)c1ccc(N2CCN(C(c3ccccc3)c3ccc(Cl)cc3)CC2)cc1Oc1ccc2[nH]ccc2c1` (stereo not shown) [Compound 14, 4-[4-[(4-chlorophenyl)-phenyl-methyl]piperazin-1-yl]-2-(1H-indol-5-yloxy)-N-[3-nitro-4-(tetrahydropyran-4-ylmethylamino)phenyl]sulfonyl-benzamide], for which the IC50 at BCL-2 was greater than 0.05 µM.

Consider `CCCC(c1ccc(Br)cc1)N1CCN(c2ccc(C(=O)NS(=O)(=O)c3ccc(NCC4CCOCC4)c([N+](=O)[O-])c3)c(Oc3ccc4[nH]ccc4c3)c2)CC1` (stereo not shown) [Compound 15, 4-[4-[1-(4-bromophenyl)butyl]piperazin-1-yl]-2-(1H-indol-5-yloxy)-N-[3-nitro-4-(tetrahydropyran-4-ylmethylamino)phenyl]sulfonyl-benzamide], for which the IC50 on BCL-2 was greater than 0.05 µM; on BCL-XL, greater than 4 µM.

On to `O=C(NS(=O)(=O)c1ccc(NCC2CCOCC2)c([N+](=O)[O-])c1)c1ccc(N2CCN(C[C@H]3Cc4ccccc4CN3C(=O)c3cccs3)CC2)cc1Oc1cnc2[nH]ccc2c1` [Compound 34, N-[3-nitro-4-(tetrahydropyran-4-ylmethylamino)phenyl]sulfonyl-2-(1H-pyrrolo[2,3-b]pyridin-5-yloxy)-4-[4-[[(3R)-2-(thiophene-2-carbonyl)-3,4-dihydro-1H-isoquinolin-3-yl]methyl]piperazin-1-yl]benzamide], for which the results for the IC50 on BCL-2 and at BCL-XL were 0.01 to 0.05 µM and 2 to 4 µM, respectively.

On to `CC1=CC[C@@H](c2ccc(Cl)cc2)[C@H](CN2CCN(c3ccc(C(=O)NS(=O)(=O)c4ccc(NCC5CCOCC5)c([N+](=O)[O-])c4)c(Oc4cnc5[nH]ccc5c4)c3)CC2)C1` [Compound 60, 4-[4-[[(1R,6R)-6-(4-chlorophenyl)-3-methyl-cyclohex-3-en-1-yl]methyl]piperazin-1-yl]-N-[3-nitro-4-(tetrahydropyran-4-ylmethylamino)phenyl]sulfonyl-2-(1H-pyrrolo[2,3-b]pyridin-5-yloxy)benzamide], for which the IC50 was greater than 0.05 µM on BCL-2 and greater than 4 µM at BCL-XL.

Turning to `CC1=CC[C@@H](CN2CCN(c3ccc(C(=O)NS(=O)(=O)c4ccc(NCC5CCOCC5)c([N+](=O)[O-])c4)c(Oc4cnc5[nH]ccc5c4)c3)CC2)[C@@H](c2ccc(Cl)cc2)C1` [Compound 71, 4-[4-[[(1R,6S)-6-(4-chlorophenyl)-4-methyl-cyclohex-3-en-1-yl]methyl]piperazin-1-yl]-N-[3-nitro-4-(tetrahydropyran-4-ylmethylamino)phenyl]sulfonyl-2-(1H-pyrrolo[2,3-b]pyridin-5-yloxy)benzamide], the IC50 is 0.01 to 0.05 µM on BCL-2 and greater than 4 µM on BCL-XL.

For `O=C(NS(=O)(=O)c1ccc(NCC2CCOCC2)c([N+](=O)[O-])c1)c1ccc(N2CCN(C[C@@H]3CC(F)(F)CN3c3ccc(Cl)cc3)CC2)cc1Oc1cnc2[nH]ccc2c1` [Compound 81, 4-[4-[[(2S)-1-(4-chlorophenyl)-4,4-difluoro-pyrrolidin-2-yl]methyl]piperazin-1-yl]-N-[3-nitro-4-(tetrahydropyran-4-ylmethylamino)phenyl]sulfonyl-2-(1H-pyrrolo[2,3-b]pyridin-5-yloxy)benzamide], the CC50 at 3 days in data set [1] was in the range of 10 to 25 µM. For the same compound, the CC50 in the data set with RS4-11 cells (72 h, RS4-11 cells, 3 days, CellTiter-Glo) is greater than 0.2 µM; in the data set on MOLT-4 cells (72 h, MOLT-4 cells, 3 days, CellTiter-Glo) it was 2 to 10 µM.

For the origin of these results see patent US11834450B2, “Compounds having ((3-nitrophenyl)sulfonyl)acetamide as BCL-2 inhibitors” (Eil Therapeutics, Inc., priority 2021, dated 2023).
